Consider 25 compounds from patent US9499488B2, “Vitamin D receptor agonists and uses thereof” (Beth Israel Deaconess Medical Center, Inc., priority 2011, dated 2016).

The target of series [1] is T1, VDR (GAL4-DBD/VDR-LBD fusion protein in HEK293T cells) (Homo sapiens, UniProt P11473).
T1 construct: the targeting construct (GAL4-DBD/VDR-LBD) fusion protein engineered in a HEK293T cell line containing 7XUAS-bla; host or cells: GeneBLAzer VDR-UAS-bla HEK 293T cells
T1 sequence (P11473 127-423 limits assumed): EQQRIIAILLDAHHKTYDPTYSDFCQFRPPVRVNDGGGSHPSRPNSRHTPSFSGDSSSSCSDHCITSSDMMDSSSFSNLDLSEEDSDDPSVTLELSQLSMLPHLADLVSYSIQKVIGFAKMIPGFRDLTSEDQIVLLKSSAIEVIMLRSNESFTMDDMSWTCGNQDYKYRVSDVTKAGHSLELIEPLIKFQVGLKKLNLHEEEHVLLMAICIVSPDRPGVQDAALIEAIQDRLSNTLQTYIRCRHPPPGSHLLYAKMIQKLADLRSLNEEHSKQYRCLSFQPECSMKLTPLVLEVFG
Put plainly: GeneBLAzer cell-based VDR assay (VDR-UAS-bla HEK 293T, beta-lactamase reporter). The conditions noted are these: for Activity: agonist or antagonist at VDR, compounds of formula (I) tested as mixture of diastereomers; for VDR agonistic activity (degree, in words): high throughput screen of vitamin D receptor activity. From the text:
High throughput assay validation of the top ranked unique molecules from each of three PDB conformations on the basis of docking score (glide score+ionization state penalty). From this priority list 200 of the best ranked molecules, following ADMET evaluation, were purchased and subjected to binding assays. The compounds of formula (I) were obtained and tested as a mixture of diastereomers.
To determine which compounds identified by virtual screens are actually capable of regulating the transcriptional profile of VDR, we performed GeneBLAzer® Cell-Based VDR Assay (kit was bought from Invitrogen and assay performed as per instructions). Upon binding of a VDR agonist to the targeting construct (GAL4-DBD/VDR-LBD) fusion protein engineered in a HEK293T cell line containing 7XUAS-bla, a transcriptional cascade is initiated that produces β-lactamase (BLA). In the presence of the BLA LiveBLAzer™ substrate, cells expressing BLA will fluoresce blue (460 nm), while those not expressing BLA will fluoresce green (530 nm); higher […] ratio indicating the activation of VDR, whereas in presence of calcitriol (potent agonist) diminishing of this ratio indicates an antagonist behavior of the ligand. The agonist and antagonist abilities of CADD-selected compounds were determined in six-point concentration profile and compared with vehicle.
GeneBLAzer® VDR-UAS-bla HEK 293T cells were purchased from Invitrogen (Cat# K1700). The cells were cultured in growth medium in a humidified (37° C./5% CO2) incubator following the manufacture's instruction. Test compounds (ChemBridge, San Diego, Calif.) and Calcitriol (1α,25-Dihydroxyvitamin D3, Sigma) were dissolved in 100% DMSO(Sigma) at 1000-fold stock concentration and stored at −20° C., which were diluted in assay medium immediately prior to use. LiverBLAzer-FRET B/G loading kit was purchased from Invitrogen.
The GeneBLAzer® VDR-UAS-bla HEK 293T cell-based assay was used to screen 200 compounds for activity at the vitamin D receptor. The assay was run in triplicate following the manufacture's instruction. Briefly, 2×10^4 cells in 32 μl assay medium were added to each well of a 384-well black-wall assay plate (Corning Incorporated, Cat#3712). To each well was added 8 al of compound solution diluted in assay medium, the cells were incubated in a humidified (37° C./5% CO2) incubator for 5 hours. The cell-free wells (containing 32 μl assay medium only) and unstimulated cell wells were treated in parallel with the same concentration of DMSO in assay medium, which were used as background controls and blank controls, respectively. Calcitriol was used as a positive control. To each well was added 8 μl of LiverBLAzer-FRET B/G substrate mixture. The plate was covered with plate sealer and incubated at room temperature for 2 hours in the dark. Fluorescence emission was measured on SpectraMax plate reader at 460 nm and 530 nm with excitation set to 409 nm. After subtraction of background, the average value at 460 nm was divided by the average value at 530 nm to obtain the 460/530 ratio.

Series [2] can be described thus: Calcemic effects: serum ionized calcium in 1α-hydroxylase knock out mice. The format is in vivo. Particulars: 1α-OH KO mice. The procedure:
We performed short-term (24 hours) and long-term (7 days) in vivo experiments comparing the calcemic effect of compound 10 (aka VDRA) to an equivalent dose of calcitriol.
For this study, we used 1α-hydroxylase (1α-OH) knock out (KO) mice, which lack 1α-OH, an enzyme that converts 25(OH)VitD3 to the hormonally active form, 1,25-dihydroxyvitamin D3 (1,25(OH)2VitD3) or calcitriol. These mice are designed to have a low vitamin D level at baseline and are hypocalcemic.
For the short term experiment, we administered 0.6 μg/kg (therapeutic dose) and 3 μg/kg (supratherapeutic dose) of vehicle, calcitriol or compound 10, and then measured serum calcium level 24 hours after administration.
For the long-term experiment, we administered 0.6 μg/kg of vehicle, calcitriol or compound 10 for one week. We administered the drugs on Wednesday, Friday, and Monday, and measured serum calcium level on the following Tuesday.
Serum ionized calcium levels were measured using clinical grade iSTAT system (Abbott laboratories).

The nature of series [3]: Inhibition of hyperparathyroidism: serum PTH in 1α-hydroxylase knock out mice. The conditions noted are these: 0.6 μg/kg three times a week; 1α-OH KO mice; serum PTH ELISA. The format is in vivo. From the text:
We performed long-term (7 days) in vivo experiments comparing the parathyroid hormone (PTH) levels following administration of compound 10 (aka VDRA) to an equivalent dose of paricalcitol (PC), a VDR agonist used to treat secondary hyperparathyroidism.
For this study, we used 1α-hydroxylase (1α-OH) knock out (KO) mice, which lack 1α-OH, an enzyme that converts 25(OH)VitD3 to the hormonally active form, 1,25-dihydroxyvitamin D3 (1,25(OH)2VitD3). These mice are designed to have a low vitamin D level at baseline and are hypocalcemic.
We administered 0.6 μg/kg of compound 10 or paricalcitol three times a week (Mon, Wed, Fri) for three weeks. Serum PTH level was measured using a PTH (intact, mouse) ELISA immunoassay (Alpco, Salem, Mass.).
(ELISA stands for enzyme-linked immunosorbent assay.)

`CCSCCOC(=O)C1=C(C)NC2=C(C(=O)CC(c3ccccc3)C2)C1c1ccccc1` (stereo not shown) [Compound 1]: in series [1], the Activity entry is on record as “Agonist” and the “VDR agonistic activity (degree, in words)” value is listed as “highest degree of agonistic activity”.

Turning to `CCOC(=O)C1=C(C)NC2=C(C(=O)CC(c3ccc(Cl)cc3)C2)C1c1ccc(F)cc1` (stereo not shown) [Compound 2], the Activity entry in series [1] was “Agonist”.

Turning to `COc1ccc(C2C(C(=O)OCCOc3ccccc3)=C(C)NC3=C2C(=O)CC(c2ccccc2)C3)cc1O` (stereo not shown) [Compound 3], in series [1], the Activity result is given as “Agonist”.

`CCOC(=O)C1=C(C)NC2=C(C(=O)CC(c3ccc(OC)cc3)C2)C1c1cccc(O)c1` (stereo not shown) [Compound 4]: the Activity entry in series [1] is on record as “Antagonist”.

On to `CCc1ccc(C2C(C(=O)OCCOc3ccccc3)=C(C)NC3=C2C(=O)CC(c2ccc(OC)cc2)C3)cc1` (stereo not shown) [Compound 5], for which the Activity result in series [1] was “Agonist”.

On to `CCSCCOC(=O)C1=C(C)NC2=C(C(=O)CC(c3ccccc3OC)C2)C1c1ccccc1F` (stereo not shown) [Compound 6], for which, in series [1], the Activity entry is “Agonist”.

Take `CCOc1cc(C2C(C(=O)OCCSCC)=C(C)NC3=C2C(=O)CC(c2ccc(OC)cc2)C3)ccc1O` (stereo not shown) [Compound 7]: the Activity result in series [1] is “Agonist”.

As for `COCCOC(=O)C1=C(C)NC2=C(C(=O)CC(c3ccc(Cl)cc3)C2)C1c1ccc(Br)cc1` (stereo not shown) [Compound 8], the Activity result in series [1] is reported as “Agonist”.

As for `CCOC(=O)C1=C(C)NC2=C(C(=O)CC(c3ccc(OC)cc3)C2)C1c1ccc(O)cc1` (stereo not shown) [Compound 9], in series [1], the Activity result is on record as “Antagonist”.

`CCSCCOC(=O)C1=C(C)NC2=C(C(=O)CC(c3ccc(Cl)cc3)C2)C1c1ccccc1F` (stereo not shown) [Compound 11]: in series [1], the Activity entry is listed as “Agonist”.

For the compound `COc1ccc(C2CC(=O)C3=C(C2)NC(C)=C(C(=O)OCCOc2ccccc2)C3c2ccccc2)cc1` (stereo not shown) [Compound 12], the Activity result in series [1] is “Agonist”.

On to `CCSCCOC(=O)C1=C(C)NC2=C(C(=O)CC(c3ccc(OC)cc3)C2)C1c1ccccc1F` (stereo not shown) [Compound 13], for which, in series [1], the Activity result is listed as “Agonist”.

For `COCCOC(=O)C1=C(C)NC2=C(C(=O)CC(c3ccc(Cl)cc3)C2)C1c1ccc(C)cc1` (stereo not shown) [Compound 14], the Activity entry in series [1] is on record as “Agonist”.

Take `CCSCCOC(=O)C1=C(C)NC2=C(C(=O)CC(c3ccc(Cl)cc3)C2)C1c1ccccc1OC` (stereo not shown) [Compound 15]: the Activity entry in series [1] is “Agonist”.

On to `CCOCCOC(=O)C1=C(C)NC2=C(C(=O)CC(c3ccc(Cl)cc3)C2)C1c1ccc(F)cc1` (stereo not shown) [Compound 16], for which the Activity result in series [1] was “Agonist”.

For `CCSCCOC(=O)C1=C(C)NC2=C(C(=O)CC(c3ccc(OC)cc3)C2)C1c1ccccc1OC` (stereo not shown) [Compound 17], the Activity entry in series [1] is “Agonist”.

On to `Cc1ccc(OCC(=O)Nc2ccc(S(=O)(=O)Nc3c(C)cc(C)cc3C)cc2)cc1` [Compound 18], for which, in series [1], the Activity entry was “Agonist” and the “VDR agonistic activity (degree, in words)” value is “modest agonist activity”.

In the case of `Cc1cc(C)c(NS(=O)(=O)c2ccc(NC(=O)COc3ccc(Cl)cc3)cc2)c(C)c1` [Compound 19], in series [1], the Activity result is given as “Agonist”.

Consider `Cc1cccc(OCC(=O)Nc2ccc(S(=O)(=O)Nc3c(C)cc(C)cc3C)cc2)c1` [Compound 20], for which the Activity result in series [1] was “Agonist”.

In the case of `CCc1ccc(OCC(=O)Nc2ccc(S(=O)(=O)Nc3cc(C)cc(C)c3)cc2)cc1` [Compound 21], the Activity result in series [1] was “Antagonist”.

For `Cc1cc(C)c(NS(=O)(=O)c2ccc(NC(=O)COc3ccc(Cl)cc3Cl)cc2)c(C)c1` [Compound 22], the Activity entry in series [1] is reported as “Antagonist”.

`Cc1cccc(OCC(=O)Nc2ccc(S(=O)(=O)Nc3ccc(C)cc3C)cc2)c1` [Compound 23]: the Activity entry in series [1] is “Antagonist”.

As for `COc1ccc(NS(=O)(=O)c2ccc(NC(=O)COc3ccccc3C)cc2)cc1` [Compound 24], the Activity result in series [1] was “Antagonist”.

Take `C=C1/C(=C\C=C2/CCC[C@]3(C)[C@@H]([C@H](C)CCCC(C)(C)O)CC[C@@H]23)C[C@@H](O)C[C@@H]1O` [calcitriol, 1α,25-Dihydroxyvitamin D3, reference compound]: the “increase in serum calcium level compared to the vehicle, long term” value in series [2] (0.6 μg/kg for one week (three administrations)) is on record as “about 45%”. Moreover, in series [2] (24 hours after administration, 0.60 and 3.0 μg/kg doses), the “increase in serum calcium level compared to the vehicle, short term” value is “did not show significant increase”.

With `C[C@H](/C=C/[C@H](C)C(C)(C)O)[C@H]1CC[C@H]2/C(=C/C=C3C[C@@H](O)C[C@H](O)C3)CCC[C@]12C` [paricalcitol, reference compound], the PTH levels result in series [3] was “significantly reduced”.
